Earlier results, collected in US8008021B2, “N-terminal truncation of cardiac troponin subunits and their roles in cardiovascular disease” (Evanston Northwestern Healthcare, priority 2006, dated 2011).

Biological target: T1, μ-calpain (Homo sapiens, UniProt P07384)
T1 sequence (P07384 1-714): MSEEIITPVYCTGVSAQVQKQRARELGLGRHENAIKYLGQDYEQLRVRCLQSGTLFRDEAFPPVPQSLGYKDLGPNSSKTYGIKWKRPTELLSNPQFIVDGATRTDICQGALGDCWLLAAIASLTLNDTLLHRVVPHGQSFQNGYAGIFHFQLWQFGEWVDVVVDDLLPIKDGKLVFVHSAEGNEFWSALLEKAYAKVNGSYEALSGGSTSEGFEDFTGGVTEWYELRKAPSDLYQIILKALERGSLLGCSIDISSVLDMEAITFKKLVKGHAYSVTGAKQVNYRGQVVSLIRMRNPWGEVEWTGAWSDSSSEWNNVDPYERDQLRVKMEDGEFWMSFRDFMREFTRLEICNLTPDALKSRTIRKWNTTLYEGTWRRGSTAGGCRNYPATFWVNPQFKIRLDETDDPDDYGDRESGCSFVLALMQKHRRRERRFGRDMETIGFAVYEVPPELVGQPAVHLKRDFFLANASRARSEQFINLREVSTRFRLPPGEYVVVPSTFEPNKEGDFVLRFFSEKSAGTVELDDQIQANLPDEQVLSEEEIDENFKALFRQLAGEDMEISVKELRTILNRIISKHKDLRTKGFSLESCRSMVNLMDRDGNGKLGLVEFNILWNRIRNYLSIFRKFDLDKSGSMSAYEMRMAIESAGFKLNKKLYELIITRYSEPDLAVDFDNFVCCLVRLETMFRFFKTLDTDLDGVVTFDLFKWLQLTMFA
T1 sequence (P04632 1-268 partner): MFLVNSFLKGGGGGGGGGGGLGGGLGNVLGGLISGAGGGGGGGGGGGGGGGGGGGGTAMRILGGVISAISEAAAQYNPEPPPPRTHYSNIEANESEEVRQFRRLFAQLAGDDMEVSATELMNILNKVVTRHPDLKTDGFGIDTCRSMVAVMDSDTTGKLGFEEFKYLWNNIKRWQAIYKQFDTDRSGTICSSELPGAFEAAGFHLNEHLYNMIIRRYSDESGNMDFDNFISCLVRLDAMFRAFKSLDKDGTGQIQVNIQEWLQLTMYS
Conditions: reference 43, cited from earlier work; for Ki: read-out: apparent inhibition constant Ki against μ-calpain

SMILES	Ki	selectivity for μ-calpain over m-calpain
O=C(O)/C(S)=C/c1ccc(I)cc1 [PD150606]	210 ± 10 nM	–
O=C(O)/C(S)=C/c1c[nH]c2ccc(F)cc12 [PD151746]	260 ± 30 nM	20 fold
